Test results reported in patent US20060106075A1, “Benzothiazole derivatives having beta-2-adrenoreceptor agonist activity” (priority 2002, published 2006).
Like-named read-outs stand apart in the source and are kept apart here.

Target: β2-adrenoceptor (Homo sapiens, UniProt P07550)
Assay: β2-adrenoceptor binding potency, classical filtration binding assay
From the text: Accordingly the invention also provides a compound of formula I in free or salt form for use as a pharmaceutical.

Sequence of β2-adrenoceptor (P07550 whole entry, species assumed): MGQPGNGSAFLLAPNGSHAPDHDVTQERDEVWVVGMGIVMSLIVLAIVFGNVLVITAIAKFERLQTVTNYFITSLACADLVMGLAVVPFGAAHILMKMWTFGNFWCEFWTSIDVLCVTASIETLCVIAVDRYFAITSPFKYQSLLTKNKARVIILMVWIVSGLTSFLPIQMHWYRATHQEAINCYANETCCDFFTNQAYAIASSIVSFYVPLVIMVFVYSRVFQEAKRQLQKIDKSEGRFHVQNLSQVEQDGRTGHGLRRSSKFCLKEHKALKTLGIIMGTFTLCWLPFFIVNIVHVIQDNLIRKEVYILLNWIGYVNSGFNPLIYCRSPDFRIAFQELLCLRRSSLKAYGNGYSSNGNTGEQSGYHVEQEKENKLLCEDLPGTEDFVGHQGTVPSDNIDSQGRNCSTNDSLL

Structure (SMILES)	Ki (read-out: Ki (β2))	Ki
O=c1[nH]c2c(O)ccc(C(O)CNCCc3ccc(OCCCCc4ccccc4)cc3)c2s1 (centres unmarked) [Example 1, 4-hydroxy7-(1-hydroxy-2-{2-[4-(4-phenyl-butoxy)-phenyl]-ethylamino}-ethyl)-3H-benzothiazol-2-one]	0.3 nM	–
COc1ccc(C[C@@H](C)NCC(O)c2ccc(O)c3[nH]c(=O)sc23)cc1 (some centres unmarked) [Example 3]	–	1.6 nM
